PMC6058716, “Two Odorant-Binding Proteins of the Dark Black Chafer (Holotrichia parallela) Display Preferential Binding to Biologically Active Host Plant Volatiles” (Frontiers in Physiology, 2018)
Read-outs that look alike come from different tables or passages of the source.

Experiments:
HparOBP20 = HparOBP20 (Holotrichia parallela, UniProt A0A0G2YKL4); experiment: Fluorescence competitive binding assay with 1-NPN probe, recombinant HparOBP20
Description: (§1) Purification was performed via Ni ion affinity chromatography (GE Healthcare, Beijing, China), and the His-tag was removed using enterokinase for HparOBP20 or tobacco etch virus (TEV) protease for HparOBP49.
(§2) We used an F-380 fluorescence spectrophotometer (Tianjin, China) to determine the results of the perform the binding assay at room temperature (25°C). The excitation wavelength was 337 nm, and the emission spectrum was recorded between 390 and 460 nm.

HparOBP49 = HparOBP49 (Holotrichia parallela, UniProt A0A0G2YD95); experiment: Fluorescence competitive binding assay with 1-NPN probe, recombinant HparOBP49
Description: as §1, §2

DBC antennae = experiment: Electroantennogram (EAG) responses of virgin male/female antennae; design: species or system Holotrichia parallela; details: 1 μg/μl, corrected with methanol; for EAG response, males: male antennae
Description: The EAG responses of virgin male/female antennae were measured after removing the tips of the three antennal lamellae (at approximately 1 mm) and separating them from each other. The chemicals used for the EAG and behavior assays were diluted in methanol (HPLC grade) to varying concentrations (0.1, 1, and 10 μg/μl), and methanol was used as a control. A 10 μl aliquot of each concentration was applied to a filter paper (25 × 8 mm). EAG responses were recorded for 5 s, with a stimulation interval of 30 s and a flow rate of 4 ml/s for both the stimulant and purge airflow. Each chemical was tested against six antennae, and each antenna was tested with three repeated stimulations. The EAG apparatus consisted of a signal acquisition system (IDAC-4), a micromanipulator assembly (INR-5), a stimulus controller (CS-05), and a system for outputting the EAG results (Syntech Company, Holland).

DBC adults [1] = experiment: Field evaluation, baited traps; type: in vivo, Holotrichia parallela; details: for Male DBCs caught in traps: males, 360 mg per dispenser, mean ± SE, N=3 traps; for Attractant ability in traps: result in words
Description: According to the laboratory evaluation, in addition to the main sex pheromone component, L-leucine methyl ester, (Z)-3-hexenyl acetate was considered as a candidate compound for attracting DBC adults in the field. The tested chemicals were individually dissolved with methanol to 360 mg/ml. A dispenser was constructed using oil-free cotton wool with 360 mg of the tested chemical and stored in a freezer before use. Methanol was employed as a control. The treatments were as follows: • - L-leucine methyl ester alone, 360 mg/ml, 1 ml/dispenser • - (Z)-3-hexenyl acetate alone, 360 mg/ml, 1 ml/dispenser • - methanol alone as control, 99% purity, 1 ml/dispenser All experiments were performed at the experimental station of the Shandong Peanut Research Institute, Lai Xi Wang Cheng, Qingdao, China. Traps were placed in middle of the field, and each trap was located 60 m from any other trap, so that the individual treatments were 60 m apart. To avoid cross-contamination, only one compound was tested at each sub-site at any time, and each compound was tested at only one sub-site ([Isberg et al., 2017]). Each trap was set to operate from 1 h before sunset until 1 h after sunset. Three traps (replicates) were selected for each treatment. The test period was June 1–20, 2017. As a rule, the traps were checked every day, and the individuals that were caught in all experiments were sexed.

DBC adults [2] = experiment: Y-tube olfactometer behavioral response; type: in vivo, Holotrichia parallela; details: 1 μg/μl, T/(T+C); for Selective response rate (%), Male / Selective response rate (%), Female: in Figure 6, letters mark significance
Description: The behavioral responses of female and male adults to the putative ligands were tested using a Y-tube olfactometer in a dark room at 27 ± 1°C. A filter paper (25 × 8 mm) with 10 μl of the test compound was placed at the end of one arm of the Y-tube, with 10 μl of methanol at the end of the other arm (control tube). The airflow was 500 ml/min. Six replicates were performed for each stimulant with 10 healthy virgin adults in the main stem of the Y-tube, and 10 min was allowed for their distribution. The response rate was calculated according to the following equations: response rate = (T+C)/SUM and selective response rate = T/(T+C), where T represents the number of beetles in the treatment tube; C indicates the number of beetles in the control tube; and SUM is the number of beetles tested.

[3] = displacement of 2 μM 1-NPN, 2 μM protein, Tris-HCl pH 7.4, 25°C, read-out: IC50, HparOBP20
[4] = displacement of 2 μM 1-NPN, 2 μM protein, Tris-HCl pH 7.4, 25°C, read-out: IC50, HparOBP49
[5] = calculated from IC50, Ki = [IC50]/(1+[1-NPN]/K1-NPN), read-out: Ki, HparOBP20
[6] = Ki, HparOBP20, calculated from IC50, Ki = [IC50]/(1+[1-NPN]/K1-NPN)

Sequence of HparOBP49 (A0A0G2YD95 entry or part of it): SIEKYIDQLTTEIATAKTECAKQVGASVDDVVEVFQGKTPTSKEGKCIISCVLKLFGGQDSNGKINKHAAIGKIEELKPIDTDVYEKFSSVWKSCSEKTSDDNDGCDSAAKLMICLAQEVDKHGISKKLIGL
Sequence of HparOBP20 (A0A0G2YKL4 entry or part of it): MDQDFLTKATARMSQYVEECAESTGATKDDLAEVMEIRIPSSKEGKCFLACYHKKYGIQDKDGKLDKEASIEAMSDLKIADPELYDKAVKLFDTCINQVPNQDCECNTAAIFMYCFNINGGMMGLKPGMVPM

| Compound | IC50 (HparOBP20) | IC50 (HparOBP49) | IC50 (HparOBP20; [3]) | IC50 (HparOBP49; [4]) | also measured |
| --- | --- | --- | --- | --- | --- |
| CCCCCC=O [1-Hexanal] | > 50 µM | > 50 µM |  |  |  |
| CCCCCCO [1-Hexanol] |  |  | > 50 µM | > 50 µM |  |
| Cn1cccc1 [1-Methylpyrrole] |  |  | 26.1 µM | > 50 µM | Ki (HparOBP20; [5]): 21.9 µM |
| CCCCCCCCO [1-Octanol] |  |  | 30.2 µM | > 50 µM | Ki (HparOBP20; [5]): 25.3 µM |
| CC(=O)c1ccc(C)c(C)c1 [3′,4′-Dimethylacetophenone] |  |  | > 50 µM | > 50 µM |  |
| CCc1ccc(C(C)=O)cc1 [4′-Ethylacetophenone] | > 50 µM | > 50 µM |  |  |  |
| CCC/C=C/CO [(E)-2-Hexen-1-ol] | > 50 µM | > 50 µM |  |  |  |
| CCC/C=C/C=O [(E)-2-Hexenal] | > 50 µM | > 50 µM |  |  |  |
| CCC/C=C/COC(C)=O [(E)-2-Hexenyl acetate] |  |  | 27.8 µM | > 50 µM | Ki (HparOBP20; [5]): 23.3 µM |
| CC/C=C/CCO [(E)-3-Hexen-1-ol] | 30.3 µM | > 50 µM |  |  | Ki (HparOBP20; [6]): 25.4 µM |
| C=C(C)[C@H]1CC=C(C)CC1 [(R)-(+)-Limonene] |  |  | 28.7 µM | > 50 µM | Ki (HparOBP20; [5]): 24 µM |
| C=C[C@](C)(O)CCC=C(C)C [(R)-(-)-Linalool] |  |  | > 50 µM | > 50 µM |  |
| CC/C=C\CCO [(Z)-3-Hexen-1-ol] | 30.1 µM | > 50 µM |  |  | Ki (HparOBP20; [6]): 25.2 µM |
| CC/C=C\CCOC(C)=O [(Z)-3-Hexenyl acetate] |  |  | 22.1 µM | 44.7 µM | EAG response, females (DBC antennae; female antennae): 4.84 mV; EAG response, males (DBC antennae): 4.02 mV; Male DBCs caught in traps (DBC adults [1]): 83 ± 4.933 DBCs; Ki (HparOBP20; [5]): 18.5 µM; Ki (HparOBP49; calculated from IC50, Ki = [IC50]/(1+[1-NPN]/K1-NPN), read-out: Ki, HparOBP49): 39.7 µM; Selective response rate, females (DBC adults [2]; females): 98%; Selective response rate (%), Male (DBC adults [2]; males): 59% |
| O=Cc1ccccc1 [Benzaldehyde] | > 50 µM | > 50 µM |  |  |  |
| OCc1ccccc1 [Benzyl alcohol] | > 50 µM | > 50 µM |  |  |  |

| Compound | IC50 (HparOBP20) | IC50 (HparOBP49) | IC50 (HparOBP20; [3]) | IC50 (HparOBP49; [4]) | also measured |
| --- | --- | --- | --- | --- | --- |
| CCCCCCCCCCCC [Dodecane] |  |  | 48.5 µM | > 50 µM | Ki (HparOBP20; [5]): 40.6 µM |
| CCCCCCCCCCCC=O [Dodecyl aldehyde] |  |  | > 50 µM | > 50 µM |  |
| CC(C)=CCC/C(C)=C/CC/C(C)=C/CO [Farnesol, mixture of isomers, Farnesol] |  |  | > 50 µM | > 50 µM |  |
| CCCCCC(=O)O [Hexanoic acid] | 47.2 µM | 47.6 µM |  |  | Ki (HparOBP20; [6]): 39.5 µM; Ki (HparOBP49): 42.2 µM |
| COC(=O)[C@@H](N)CC(C)C.Cl [L-Leucine methyl ester] |  |  | > 50 µM | > 50 µM | EAG response, males (DBC antennae): 5.68 mV; Male DBCs caught in traps (DBC adults [1]): 258 ± 12.860 DBCs; Selective response rate (%), Female (DBC adults [2]; females): 0.20c %; Selective response rate, males (DBC adults [2]; males): 96% |
| COC(=O)c1ccccc1 [Methyl benzoate] | > 50 µM | > 50 µM |  |  |  |
| COC(=O)c1ccccc1O [Methyl salicylate] | 28.5 µM | > 50 µM |  |  | Ki (HparOBP20; [6]): 23.8 µM |
| CCCCCCCCC=O [Nonanal] |  |  | > 50 µM | > 50 µM |  |
| CCCCCCCCC(=O)O [Nonanoic acid] |  |  | > 50 µM | > 50 µM |  |
| CCCCCCCCCCCCCCC [Pentadecane] |  |  | 16.5 µM | > 50 µM | Attractant ability in traps (DBC adults [1]): low attractant ability; Ki (HparOBP20; [5]): 13.8 µM; Selective response rate (%), Female (DBC adults [2]; females): 67%; Selective response rate (%), Male (DBC adults [2]; males): 59% |
| CCCCC=O [Valeraldehyde] |  |  | 31.1 µM | > 50 µM | Ki (HparOBP20; [5]): 26.1 µM |
| CC1=CC[C@H](C(C)C)C=C1 [α-Phellandrene] | 21.1 µM | > 50 µM |  |  | Attractant ability in traps (DBC adults [1]): low attractant ability; Ki (HparOBP20; [6]): 17.6 µM; Selective response rate (%), Female (DBC adults [2]; females): 51%; Selective response rate (%), Male (DBC adults [2]; males): 73% |
| CC1=CCC2CC1C2(C)C (stereo not drawn) [α-Pinene] | 26.8 µM | > 50 µM |  |  | Ki (HparOBP20; [6]): 22.4 µM |
| C=C1CC/C=C(\C)CC[C@@H]2[C@@H]1CC2(C)C [β-Caryophyllene] | > 50 µM | > 50 µM |  |  | Selective response rate (%), Female (DBC adults [2]; females): 48% |
| Farnesene [Farnesene, mixture of isomers] |  |  | > 50 µM | > 50 µM |  |
| Ocimene [Ocimene, mixture of isomers] |  |  | > 50 µM | > 50 µM |  |
